Converted amounts (≈) assume the structure as drawn.

Format in all cases: functional
For test [1], the system named is Staphylococcus aureus. As to the kind of experiment: Antibacterial activity against Staphylococcus aureus RN4220 assessed as inhibition of microbial growth.
The subject of a further test is Acinetobacter baumannii. Put plainly: Antibacterial activity against Acinetobacter baumannii BAA-1605 assessed as reduction in bacterial growth.
Test [2] relates to Neisseria gonorrhoeae. Put plainly: Antibacterial activity against resistant Neisseria gonorrhoeae assessed inhibition of bacterial growth.
The test system of test [3] is Neisseria gonorrhoeae. As to the kind of experiment: Antibacterial activity against Neisseria gonorrhoeae ATCC 49226 assessed as reduction in bacterial growth incubated for 20 to 24 hrs by CLSI-based protocol based two-fold serial microdilution method. The note with it: time 20-24 hrs.
Test [4] deals with Enterococcus faecalis. Put plainly: Antimicrobial activity against Enterococcus faecalis ATCC 29212 assessed as reduction in microbial growth incubated for 16 to 20 hrs by CLSI-protocol based Mueller-Hinton broth assay. The note with it: time 16-20 hrs.
Test [5] concerns Klebsiella pneumoniae. As to the kind of experiment: Antibacterial activity against Klebsiella pneumoniae ATCC 700603 assessed as reduction in bacterial growth by microbroth dilution assay.
Test [6] deals with Pseudomonas aeruginosa. As to the kind of experiment: Antibacterial activity against Pseudomonas aeruginosa ATCC 27853 assessed as bacterial growth inhibition measured after 18 hrs by CLSI protocol based two-fold serial microdilution method.
The test system of test [7] is Neisseria gonorrhoeae. As to the kind of experiment: Antibacterial activity against Neisseria gonorrhoeae.
The subject of test [8] is Klebsiella pneumoniae. Put plainly: Antibacterial activity against Klebsiella pneumoniae ATCC 10031 assessed as reduction in microbial growth after 24 hrs by two-fold serial dilution method.
Test [9] relates to Enterococcus faecium. Put plainly: Antibacterial activity against Enterococcus faecium.
Test [10] concerns Helicobacter pylori. As to the kind of experiment: Antibacterial activity against Helicobacter pylori ATCC 700392 assessed as reduction in bacterial growth incubated for 24 hrs by broth micro-dilution method.
Test [11] relates to Helicobacter pylori. As to the kind of experiment: Antibacterial activity against Helicobacter pylori assessed as inhibition of bacterial growth by broth micro-dilution assay.
Test [12] relates to Staphylococcus aureus. As to the kind of experiment: Antibacterial activity against Staphylococcus aureus ATCC 25923 assessed as reduction in microbial growth after 24 hrs by two-fold serial dilution method.
Test [13] has as its system Staphylococcus aureus. As to the kind of experiment: Antimicrobial activity against methicillin-resistant Staphylococcus aureus ATCC 29213 assessed as reduction in microbial growth by CLSI brith micro-dilution method.
The test system of test [14] is Staphylococcus aureus. Put plainly: Antibacterial activity against vancomycin-resistant Staphylococcus aureus VRS 1 assessed as reduction in bacterial growth.
Test [15] has as its system Helicobacter pylori. Put plainly: Antibacterial activity against Helicobacter pylori ATCC 43504 assessed as reduction in bacterial growth incubated for 24 hrs by broth micro-dilution method.
Test [16] relates to Pseudomonas aeruginosa. As to the kind of experiment: Antibacterial activity against Pseudomonas aeruginosa ATCC 27853 assessed as reduction in bacterial growth by broth microdilution method.
The test system of test [17] is Staphylococcus aureus. As to the kind of experiment: Antimicrobial activity against […] Staphylococcus aureus ATCC 25923 assessed as reduction in microbial growth by CLSI protocol based analysis.
The subject of test [18] is Staphylococcus aureus. Put plainly: Antimicrobial activity against methicillin-sensitive Staphylococcus aureus ATCC 29213 assessed as reduction in bacterial growth by CLSI protocol based analysis.
Test [19] has as its system Pseudomonas aeruginosa. As to the kind of experiment: Antibacterial activity against Pseudomonas aeruginosa PAO1 assessed as bacterial growth inhibition measured after 18 hrs by CLSI protocol based two-fold serial microdilution method.
In test [20] the test system is Enterococcus faecium. Put plainly: Antibacterial activity against Enterococcus faecium assessed as reduction in bacterial growth.
For test [21], the system named is Staphylococcus aureus. Put plainly: Antibiofilm activity against Staphylococcus aureus ATCC 25923 assessed as inhibition of biofilm formation incubated for 24 hrs by crystal violet staining based analysis.
Test [22] deals with Staphylococcus aureus. Put plainly: Antimicrobial activity against Staphylococcus aureus ATCC 25923 assessed as reduction in microbial growth after 24 hrs by CLSI based broth microdilution method.
Test [23] relates to Enterococcus faecium. Put plainly: Antibacterial activity against vancomycin-resistant Enterococcus faecium assessed as reduction in bacterial growth CLSI-based double dilution method.
Test [24] concerns Staphylococcus aureus. As to the kind of experiment: Antibacterial activity against methicillin-resistant Staphylococcus aureus ATCC 43300 assessed as reduction in bacterial growth by CLSI protocol based two-fold serial broth microdilution method.
In test [25] the test system is Enterococcus faecalis. Put plainly: Antibacterial activity against […] Enterococcus faecalis ATCC 29212 assessed as reduction in bacterial growth by CLSI protocol based two-fold serial broth microdilution method.
For test [26], the system named is Staphylococcus aureus. Put plainly: Antibacterial activity against methicillin-resistant Staphylococcus aureus ATCC 43300 assessed as reduction in bacterial growth by CLSI protocol based broth micro-dilution method.
For test [27], the system named is Pseudomonas aeruginosa. As to the kind of experiment: Antibacterial activity against Pseudomonas aeruginosa assessed as inhibition of bacterial growth incubated for 24 hrs by broth microdilution method.

Take `O=C(Nc1cc(Cl)cc(Cl)c1O)c1c(O)c(Cl)cc(Cl)c1Cl` [OXYCLOZANIDE]: the MIC with Staphylococcus aureus [1] turned out to be 0.125 µg/mL. In the case of `CO[C@@]12[C@H](COC(N)=O)C3=C(C(=O)C(C)=C(N)C3=O)N1C[C@@H]1N[C@@H]12` [MITOMYCIN], the minimum inhibitory concentration (MIC) in the test with Acinetobacter baumannii came to 20 µg/mL (≈ 59.8 µM). In turn, `O=C(O)c1ccccc1Nc1cccc(C(F)(F)F)c1` [FLUFENAMIC ACID] yielded an MIC50 against Neisseria gonorrhoeae [2] of 4 µg/mL (≈ 14.2 µM). Take `Oc1c(I)cc(Cl)c2cccnc12` [CLIOQUINOL]: the MIC in the test on Neisseria gonorrhoeae [3] worked out at 0.28 µM (≈ 0.0855 µg/mL).

Consider `CC(C)Oc1ccc(/C=N/NC(=N)N/N=C/c2ccc(OC(C)C)cc2)cc1`, for which, in the test on Enterococcus faecalis [4], the minimum inhibitory concentration (MIC) stood at 1 µg/mL. Consider `Nc1c2ccccc2nc2ccccc12` [AMINACRINE], for which, in the test on Klebsiella pneumoniae [5], the MIC was 8 µg/mL (≈ 41.2 µM). `Oc1c(I)cc(I)c2cccnc12` [IODOQUINOL]: in the test on Neisseria gonorrhoeae [3], the MIC turned out to be 0.1 µM (≈ 0.0397 µg/mL). In the test on Neisseria gonorrhoeae [2], `Cc1c(Cl)cccc1Nc1ccccc1C(=O)O` [TOLFENAMIC ACID] displayed an MIC50 of 4 µg/mL (≈ 15.3 µM). For the compound `Oc1c(Cl)cc(Cl)c2cccnc12` [CHLOROXINE], the minimum inhibitory concentration (MIC) in the test with Neisseria gonorrhoeae [3] came out at 0.28 µM (≈ 0.0599 µg/mL). With `CN[C@@H]1[C@@H](O[C@H]2O[C@H](CO)[C@@H](N)[C@H](O)[C@H]2O)O[C@H]2C[C@@H](N)[C@@H](O[C@H]3[C@H](O)[C@@H](O)[C@H](N)C[C@@H]3N)O[C@@H]2[C@@H]1O`, the MIC with Pseudomonas aeruginosa [6] was determined as 32 µg/mL (≈ 59.3 µM). In the test on Neisseria gonorrhoeae [7], `CN(C)Cc1ccc2c(Cl)cc(Cl)c(O)c2n1` came in with an MIC of 0.31 µg/mL (≈ 1.14 µM). With `Cc1cc(C2CCCCC2)n(O)c(=O)c1` [CICLOPIROX], the MIC with Klebsiella pneumoniae [8] was found to be 5 µg/mL.

For `CN[C@H](CC(C)C)C(=O)N[C@H]1C(=O)N[C@@H](CC(N)=O)C(=O)N[C@H]2C(=O)N[C@H]3C(=O)N[C@H](C(=O)N[C@H](C(=O)O)c4cc(O)cc(O)c4-c4cc3ccc4O)[C@H](O)c3ccc(c(Cl)c3)Oc3cc2cc(c3O[C@@H]2O[C@H](CO)[C@@H](O)[C@H](O)[C@H]2O[C@H]2C[C@](C)(N)[C@H](O)[C@H](C)O2)Oc2ccc(cc2Cl)[C@H]1O` [VANCOMYCIN], in the test on Enterococcus faecium [9], the MIC was determined as 8 µg/mL (≈ 5.52 µM). With `CCOC(=O)C1=C(C)NC(C)=C(C(=O)OC)C1c1cccc([N+](=O)[O-])c1` (stereo not given) [NITRENDIPINE], in the test on Helicobacter pylori [10], the MIC is 4 µg/mL (≈ 11.1 µM).

For `COCCOC(=O)C1=C(C)NC(C)=C(C(=O)OC(C)C)C1c1cccc([N+](=O)[O-])c1` (stereo not given) [NIMODIPINE], the MIC in the test with Helicobacter pylori [10] is 4 µg/mL (≈ 9.56 µM). On to `O=C(O)C(=O)CBr` [BROMOPYRUVATE], for which, in the test on Helicobacter pylori [11], the MIC came to 32 µg/mL (≈ 192 µM).

`COc1cc(/C=C/C(=O)CC(=O)/C=C/c2ccc(O)c(OC)c2)ccc1O` [CURCUMIN]: in the test with Staphylococcus aureus [12], the MIC was 100 µg/mL.

In the case of `Cc1ccc(-c2cc(C(F)(F)F)nn2-c2ccc(S(N)(=O)=O)cc2)cc1` [CELECOXIB], the MIC in the test with Staphylococcus aureus [13] was 32 µg/mL; with Staphylococcus aureus [14], 128 µg/mL (≈ 336 µM). As for `CN[C@H]1CC[C@@H](c2ccc(Cl)c(Cl)c2)c2ccccc21` [SERTRALINE], in the test on Helicobacter pylori [15], the MIC was 32 µg/mL (≈ 104 µM). In the test on Neisseria gonorrhoeae [2], `NC(=O)c1ccccc1O` [SALICYLAMIDE] had an MIC of 8 µg/mL (≈ 58.3 µM). Take `CC/C(=C(\c1ccccc1)c1ccc(OCCNC)cc1)c1ccccc1` [N-DESMETHYLTAMOXIFEN]: the MIC in the test on Pseudomonas aeruginosa [16] came to 16 µg/mL (≈ 44.8 µM). As for `Oc1cccc2cccnc12` [OXYQUINOLINE], the MIC in the test with Neisseria gonorrhoeae [3] amounted to 0.08 µM (≈ 0.0116 µg/mL). `CC1=NN(c2ccc(C)c(C)c2)C(=O)/C1=N\Nc1cccc(-c2cccc(C(=O)O)c2)c1O` [ELTROMBOPAG]: the MIC worked out at 2 µg/mL in the test on Staphylococcus aureus [17] and 2 µg/mL (≈ 4.52 µM) in the test with Staphylococcus aureus [18]. Regarding `N[C@@H](CC(=O)N1CCn2c(nnc2C(F)(F)F)C1)Cc1cc(F)c(F)cc1F` [SITAGLIPTIN], the MIC with Pseudomonas aeruginosa [19] is 16 µg/mL (≈ 39.3 µM). With `O=C(Nc1ccc(C(F)(F)F)cc1)Nc1ccc(C(F)(F)F)cc1`, in the test with Enterococcus faecium [20], the MIC was 1.6 µM (≈ 0.557 µg/mL). The MBEC with Staphylococcus aureus [21] was found to be 0.78 µmol/L. With `CN(C)C(=S)SSC(=S)N(C)C` [THIRAM], the MIC90 in the test with Staphylococcus aureus [22] came to 4 µg/mL.

Take `CC/C(=C(\c1ccc(O)cc1)c1ccc(OCCN(C)C)cc1)c1ccccc1` [AFIMOXIFENE]: the MIC in the test with Pseudomonas aeruginosa [16] amounted to 16 µg/mL (≈ 41.3 µM). Regarding `O=C(Nc1ccc([N+](=O)[O-])cc1Cl)c1cc(Cl)ccc1O` [NICLOSAMIDE], the minimum inhibitory concentration (MIC) in the test with Enterococcus faecium [23] was 1 µg/mL (≈ 3.06 µM); in the test with Staphylococcus aureus [24] it was 0.06 µg/mL (≈ 0.183 µM); in the test on Enterococcus faecalis [25], 0.125 µg/mL (≈ 0.382 µM). Regarding `CC[C@H](c1ccc(O)cc1)[C@@H](CC)c1ccc(O)cc1` [HEXESTROL], in the test with Staphylococcus aureus [26], the MIC was determined as 16 µg/mL (≈ 59.2 µM).

With `NC[C@H]1O[C@H](O[C@H]2[C@H](O)[C@@H](O[C@H]3O[C@H](CO)[C@@H](O)[C@H](N)[C@H]3O)[C@H](N)C[C@@H]2N)[C@H](N)C[C@@H]1O` [TOBRAMYCIN], in the test on Pseudomonas aeruginosa [27], the MIC90 turned out to be 2.2 µg/mL (≈ 4.71 µM).

The values are drawn from ChEMBL document CHEMBL6071161, “Drug repurposing against antibiotic resistant bacterial pathogens” (2024).
